# Patent US20160139120A1 (The Trustees of Columbia University in the City of New York, priority 2013, published 2016)
# Tests used:
# [1] = biological target: T1, RAGE-C1q binding (Homo sapiens, UniProt P02745+P02746+P02747); assay: ELISA-like C1q-sRAGE binding assay in presence of test substance; details: for ability of known RAGE ligands to block C1q binding to immobilized sRAGE: data not shown; for effect on C1q binding to immobilized sRAGE (RAGE-C1q interaction): 0-2 mM compound with 2 μg/ml C1q, 2 h
# T1 construct: Three forms of human sRAGE, the extracellular domain of the receptor, were utilized; made in house; host or cells: Sf9 insect cells (baculovirus)
# Method: “+” and “−” in (B) and (C) indicate whether the C1q was preincubated with monoclonal antibody or not, respectively. Results in (B) and (C) were mean±SD of three independent experiments. *p<0.01 in pair comparison indicated in the graph.
# The final peroxidase activity was monitored at 492 nm with o-phenylenediamine dihydrochloride and hydrogen peroxide as substrates. […] Remaining binding sites were blocked with 5% non-fat milk in PBS. […] ECL Western blot detection kit was used to visualize the binding.
# [2] = system: complement system; assay: Complement activation assay (C3a formation in human serum); type: biochemical
# Method: Complement activation was monitored as C3a formation from proteolytic cleavage of C3 by ELISA kit.
# C3a was assayed by ELISA kit.
# Two different forms of each protein were tested, one was immobilized and the other was free molecule in serum (dissolved). For immobilized forms, 96-well MaxiSorp plate was coated with 50 μg/ml of each protein and blocked with BSA. Complement activation was performed as in (A).
# After 1 h incubation, C3a levels in the human serum were determined as a marker of complement activation with human C3a EIA kit according to the manufacturer's instructions.
# [3] = system: U937 cells; assay: Monocyte adhesion: U937 cells to C1q-coated plate; type: cell-based, human; details: 2 mM in medium, 24 h
# Method: U-937 cells (2×10^5/ml) cultured in RPMI medium containing 10% fetal bovine serum, 100 units/ml of penicillin and 100 μg/ml of streptomycin were incubated with 100 nM of D3 and 2 ng/ml of TGF-β at 37° C. in a 5% CO2 incubator for 24 hours. After washing twice with serum-free RPMI medium, U-937 cells were suspended at concentration of 2×10^5/ml in serum-free RPMI medium containing 0 or 100 μg/ml of chicken anti-human RAGE IgY or 20 μg/ml of F(ab′)2 of mouse anti-human CD11b IgG1. As controls, 100 μg/ml of chicken anti-AGE IgY and 100 μg/ml of mouse IgG1 isotype control were used. […] The cells were cultured for 24 hours, then 50 μl of serum-free RPMI medium containing 15 μM of Calcein AM was added into each well to label U-937 cells with fluorescence for 1 hour. After three gentle washes with Hanks' balanced salt solution, the attached U-937 cells were photographed with regular light and fluorescent light, as shown in panel A. To quantitatively measure cell attachment, the plate was read with fluorescence plate reader with excitation at 485 nm and emission at 530 nm, as shown in panel B. The p value was calculated by student T-test with at least 4 samples for each condition. […]
# (A) ARPE-19RAGE cells expressed high level of RAGE protein. Ten micrograms of total proteins from ARPE-19, ARPE-19RAGE and RAGE-transfected C6 cells (C6-RAGE) were analyzed for RAGE expression by Western blot. […]
# [4] = system: U-937 cells; assay: Cytotoxicity and activation/differentiation test on U-937 cells; type: cell-based, human
# From the text: Phenolphthalein bisphosphate has been used in bacteria culture media as phosphatase substrate. […] Phagocytes are major protective cells in the body by ingesting harmful foreign particles, bacteria, and dead or dying cells. In an in vivo abdominal sepsis model caused by intraperitoneally injection with Escherichia coli, RAGE was involved in defense against the growth and/or dissemination of E. coli (The Journal of Infectious Diseases 2009, 200:765-773). In the presence of RAGE, E. coli numbers were much lower in the injection site as well as in major organs of the mouse. With the help of phenolphthalein bisphosphate, we expect that RAGE's function in this sepsis model could be enhanced further.
# [5] = system: U937 cells; assay: Phagocytosis of apoptotic Jurkat cells by differentiated U937 cells (FACS); type: cell-based, human; details: with addition of C1q; basal level 47%
# Method: (A) Representative dot-plots of different cell populations separated by FACS after 2 h phagocytosis of apoptotic Jurkat cells: top-left U937 cells without phagocytosis; top-right phagocytic U937 cells labeled with percentage of total U937 population; bottom-right apoptotic Jurkat cells. (B) FACS analysis of phagocytosis of apoptotic Jurkat cells and effect of anti-RAGE and anti-CD11b antibodies. […] Results in (B) and (D) were mean±SD of three independent experiments. *p<0.01 in pair comparison indicated in the graph.
# U937 cells (2×10^5/ml) were differentiated in standard medium containing 100 nM of vitamin D3 and 2 ng/ml of TGF-β1 at 37° C. in a 5% CO2 incubator for 2 days, with refreshment of vitamin D3 and TGF-β1 at 24 h. Differentiated U937 cells were harvested and re-suspended in Hank's Balanced Salt Solution (HESS, containing calcium and magnesium) at 2×10^6/ml, and then labeled with 5 μM of CM-DiI at 37° C. for 20 min. Labeling was ended by washing cells three times with HESS. The resulted cells were re-suspended at 4×10^5/ml in phagocytosis buffer (HESS plus 2 mM MgCl2 and 20 mM glutamate, pH 7.0).
# To label Jurkat cells with CFSE (carboxyfluorescein succinimidyl ester), Jurkat cells were incubated with 1 μM of CFDA-SE in HESS for 30 min at 37° C. Harvested cells were resuspended (1×10^6/ml) in HESS containing 1 μM of staurosporine and incubated at 37° C. for 6 h. […]
# [6] = biological target: T2, Mac-1 (Homo sapiens, UniProt P05107+P11215); assay: Pull-down of sRAGE and C1q by immobilized Mac-1; type: binding; details: ½ PBS
# T2 construct: purchased R&D Systems 4047-AM
# Method: The plate was cooled down on ice for 10 min and washed quickly three-times with cold ½ PBS. […] Stripping of Western blot membranes was performed with buffer from Pierce according to the manufacturer's instructions.
# [7] = system: RAGE-overexpressing cells; assay: Steady state binding of free C1q to RAGE-overexpressing cells; type: cell-based, human; details: data not shown
# From the text: RAGE expression was compared with another RAGE over-expressing cell line C6-RAGE, generated from rat astroglial C6 (Taguchi, 2000), with the result shown in FIG. 15A.
# FIG. 10E was used (data not shown). […] The results using rat native serum with RAGE-transfected C6 cells produced similarly unremarkable results (results not shown).
# T1 sequence (P02745 23-245): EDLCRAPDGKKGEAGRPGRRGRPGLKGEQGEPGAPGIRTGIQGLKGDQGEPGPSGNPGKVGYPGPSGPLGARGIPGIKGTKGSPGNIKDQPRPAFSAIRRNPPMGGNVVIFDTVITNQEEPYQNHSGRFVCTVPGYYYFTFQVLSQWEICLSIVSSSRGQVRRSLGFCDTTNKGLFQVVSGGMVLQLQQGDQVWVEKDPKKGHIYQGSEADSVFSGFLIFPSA
# T1 sequence (P02746 28-253): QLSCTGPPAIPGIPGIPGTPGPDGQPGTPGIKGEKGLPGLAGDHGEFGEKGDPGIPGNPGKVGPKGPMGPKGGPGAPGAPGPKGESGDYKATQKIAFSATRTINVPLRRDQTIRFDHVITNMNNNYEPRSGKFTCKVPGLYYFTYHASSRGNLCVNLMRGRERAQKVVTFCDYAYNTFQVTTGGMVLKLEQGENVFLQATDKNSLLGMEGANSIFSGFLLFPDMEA
# T1 sequence (P02747 29-245): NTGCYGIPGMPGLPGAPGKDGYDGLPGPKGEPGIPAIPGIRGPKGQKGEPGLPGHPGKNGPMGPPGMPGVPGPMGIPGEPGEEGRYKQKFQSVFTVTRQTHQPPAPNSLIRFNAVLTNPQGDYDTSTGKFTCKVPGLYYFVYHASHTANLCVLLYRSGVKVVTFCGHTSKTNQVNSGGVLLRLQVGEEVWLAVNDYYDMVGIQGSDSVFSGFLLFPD
# T2 sequence (P05107 23-700 limits assumed, other chains not shown): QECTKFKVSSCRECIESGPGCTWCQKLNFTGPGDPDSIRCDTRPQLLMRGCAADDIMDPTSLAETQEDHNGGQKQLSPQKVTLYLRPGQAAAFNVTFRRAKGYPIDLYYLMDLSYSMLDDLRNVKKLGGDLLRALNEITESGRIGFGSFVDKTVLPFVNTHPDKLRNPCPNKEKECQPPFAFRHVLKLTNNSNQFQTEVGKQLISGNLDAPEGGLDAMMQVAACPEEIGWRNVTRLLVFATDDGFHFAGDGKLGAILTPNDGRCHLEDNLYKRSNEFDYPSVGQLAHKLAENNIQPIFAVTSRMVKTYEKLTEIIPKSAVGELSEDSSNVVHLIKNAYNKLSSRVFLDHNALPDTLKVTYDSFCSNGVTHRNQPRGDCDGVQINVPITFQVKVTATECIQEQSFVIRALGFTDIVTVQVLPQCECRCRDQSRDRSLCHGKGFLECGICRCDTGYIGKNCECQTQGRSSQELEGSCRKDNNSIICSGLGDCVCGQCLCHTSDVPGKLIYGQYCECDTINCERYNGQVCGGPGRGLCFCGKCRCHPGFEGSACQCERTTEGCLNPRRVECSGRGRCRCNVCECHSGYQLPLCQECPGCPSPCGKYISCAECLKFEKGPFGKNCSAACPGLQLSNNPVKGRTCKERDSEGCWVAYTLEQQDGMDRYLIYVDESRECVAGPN
compound,measurement,setting,value
51003: known RAGE ligand; S100B obtained from Calbiochem [compound 51003],ability of known RAGE ligands to block C1q binding to immobilized sRAGE,[1],unable to block C1q binding to immobilized sRAGE
"O=C1OC(c2ccc(OP(=O)([O-])[O-])cc2)(c2ccc(OP(=O)([O-])[O-])cc2)c2ccccc21.[Na+].[Na+].[Na+].[Na+] [phenolphthalein bisphosphate, Phenolphthalein bisphosphate tetrasodium salt]",effect on C1q binding to immobilized sRAGE (RAGE-C1q interaction),[1],Phenolphthalein bisphosphate enhanced RAGE-C1q
same,effect on C1q binding to immobilized sRAGE (RAGE-C1q interaction),[1]; listed as Phenolphthalein Biphosphate,enhance RAGE-C1q interaction with dose-dependent manor
same,effect on complement activation of sRAGE,"[2]; 1 mM compound, 2 μg sRAGE in 20 μl fresh human serum",without enhancement on complement activation
same,effect of compound on U-937 cells adhesion to C1q-coated plate,[3],significantly increase the adherent U-937 cells
same,effect of compound on U-937 cells adhesion to C1q-coated plate,[3]; listed as Phenolphthalein bisphosphate,Phenolphthalein bisphosphate increased monocytes
same,activation or differentiation of U-937 cells,[4],couldn't activate or differentiate U-937 cells
same,cytotoxicity,[4]; 2 mM,no cytotoxicity
AGE-BSA: glycated bovine serum albumin,ability of known RAGE ligands to block C1q binding to immobilized sRAGE,[1],unable to block C1q binding to immobilized sRAGE
Avastin: a humanized IgG1 antibody for VEGF,complement activation (C3a) activity relative to sRAGE,[2]; at every coating concentration,about 8 times
C1q: human C1q protein (Quidel); first subcomponent of the C1 complex of the classical complement pathway,"phagocytic U937 cells population, of total U937 cells",[5],66%
same,"pull-down by immobilized Mac-1, proteins incubated separately",[6],pulled down
same,"pull-down by immobilized Mac-1, sRAGE and C1q co-incubated",[6],increased
same,binding of free C1q to cells,[7],did not bind
"Mac-1: recombinant form of human Mac-1 (CD11b/CD18), R&D Systems 4047-AM",complement activation in liquid phase,[2]; protein(s) preincubated in PBS then added to fresh human serum (FIG. 13B),could not activate the complement system
amyloid β protein fragment 1-42 [A-beta],ability of known RAGE ligands to block C1q binding to immobilized sRAGE,[1],unable to block C1q binding to immobilized sRAGE
